Experiments:
BALB/c mice = experiment: Maximum tolerated dose, body weight reduction as response; format: in vivo; conditions: intravenously
Protocol: Next, the maximum tolerated dose of salinomycin and salinomycin-loaded PLA based hybrid block copolymeric salinomycin nanoparticle was probed in BALB/c mice. Mice were administered the salinomycin loaded hybrid block copolymeric nanoparticles once a week for 3 weeks. The body weight reduction was observed as a phenotypic response. The dose-response of salinomycin and the salinomycin nanoparticle was observed by administration intraperitoneally (FIG. 7) and intravenously (FIG. 8). For intraperitoneal administration, mice were administered salinomycin and salinomycin loaded nanoparticles at 5 mg/kg, 7.5 mg/kg, 10 mg/kg. Further, only the salinomycin nanoparticles were administered at 12 mg/kg and 15 mg/kg, intraperitoneally. Three mice were probed at each dose for salinomycin and salinomycin loaded nanoparticle. For intravenous administration, mice were administered salinomycin and salinomycin loaded nanoparticles at 5 mg/kg. Only salinomycin nanoparticles were administered at 1 mg/kg, and 7.5 mg/kg. Further another group of salinomycin at 2.5 mg/kg was also tested. Three mice were probed at each dose for salinomycin and salinomycin loaded nanoparticle. It was observed that free salinomycin was tolerated up to a dose of 10 mg/kg and the salinomycin loaded nanoparticle was tolerated up to 15 mg/kg, when administered intraperitoneally. […]

MDA-MB 231 cells = experiment: Inhibition of cell proliferation; format: cell-based; conditions: Homo sapiens, 5000 cells per well, 0.01-100 μM, 72 hours
Protocol: (§1) Next, the potency of inhibition of salinomycin-induced cell growth was probed by comparing the inhibition with salinomycin and salinomycin nanoparticle in MCF-7, MDA-MB 231 and MDA-MB 468 cell lines. […] (see FIG. 6A, B, C). MCF-7 cells at concentration of 5000 cells per well were treated with salinomycin or salinomycin nanoparticles from a concentration of 0.01-100 μM respectively for 72 hours. […] MDA-MB 468 cells at concentration of 5000 cells per well were treated with salinomycin or salinomycin nanoparticles from a concentration of 0.01-100 μM respectively for 72 hours. […] MDA-MB 231 cells at concentration of 5000 cells per well were treated with salinomycin or salinomycin nanoparticles from a concentration of 0.01-100 μM respectively for 72 hours.

MDA-MB 468 cells = experiment: Inhibition of cell proliferation; format: cell-based; conditions: Homo sapiens, 5000 cells per well, 0.01-100 μM, 72 hours
Protocol: as §1

MCF-7 cells = experiment: Inhibition of cell proliferation; format: cell-based; conditions: Homo sapiens, MCF7; 5000 cells per well, 0.01-100 μM, 72 hours
Protocol: as §1

CC[C@@H](C(=O)[C@@H](C)[C@@H](O)[C@H](C)[C@@H]1O[C@@H]([C@@H](CC)C(=O)O)CC[C@@H]1C)[C@H]1O[C@]2(C=C[C@@H](O)[C@]3(CC[C@@](C)([C@H]4CC[C@](O)(CC)[C@H](C)O4)O3)O2)[C@H](C)C[C@@H]1C [salinomycin]
lethal dose (BALB/c mice): 5 mg/kg | IC50 (MDA-MB 231 cells): 3460 nM | IC50 (MDA-MB 468 cells): 1470 nM | IC50 (MCF-7 cells): 2270 nM
